Source: ChEMBL document CHEMBL5335813, “Gausemycin Antibiotic Family Acts via Ca2+-Dependent Membrane Targeting” (2024)
In brackets after ≈: the same amount, converted by molar mass. Activity calls are given as the source filed them.

Columns and labels:
Staphylococcus aureus [1] = experiment: Antimicrobial activity against Staphylococcus aureus ATCC 29213 assessed as microbial growth inhibition at pH 5 to 6 by susceptibility testing method; type: functional, organism-based
Staphylococcus aureus [2] = experiment: Antimicrobial activity against Staphylococcus aureus ATCC 29213 assessed as microbial growth inhibition measured after 18 hrs by CLSI based broth microdilution method; type: functional
Staphylococcus aureus [3] = experiment: Antimicrobial activity against Staphylococcus aureus ATCC 29213 assessed as microbial growth inhibition at pH 5 by susceptibility testing method; type: functional
Staphylococcus aureus [4] = experiment: Antimicrobial activity against Staphylococcus aureus ATCC 29213 assessed as microbial growth inhibition at pH 6 by susceptibility testing method; type: functional
Staphylococcus aureus [5] = experiment: Antimicrobial activity against Staphylococcus aureus ATCC 29213 assessed as microbial growth inhibition at pH 7 by susceptibility testing method; type: functional
Staphylococcus aureus [6] = experiment: Antimicrobial activity against Staphylococcus aureus ATCC 29213 assessed as microbial growth inhibition at pH 7.4 by susceptibility testing method; type: functional
Staphylococcus aureus [7] = experiment: Antimicrobial activity against Staphylococcus aureus ATCC 29213 assessed as microbial growth inhibition at pH 8 by susceptibility testing method; type: functional
Staphylococcus aureus [8] = experiment: Antimicrobial activity against Staphylococcus aureus ATCC 29213 assessed as microbial growth inhibition at pH 9 by susceptibility testing method; type: functional
Staphylococcus aureus [9] = experiment: Antimicrobial activity against Staphylococcus aureus ATCC 29213 assessed as microbial growth inhibition at pH 10 by susceptibility testing method; type: functional
Staphylococcus aureus [10] = experiment: Antimicrobial activity against Staphylococcus aureus ATCC 29213 assessed as microbial growth inhibition in presence of Na+ by susceptibility testing method; type: functional
Staphylococcus aureus [11] = experiment: Antimicrobial activity against Staphylococcus aureus ATCC 29213 assessed as microbial growth inhibition in presence of K+ by susceptibility testing method; type: functional
Staphylococcus aureus [12] = experiment: Antimicrobial activity against Staphylococcus aureus ATCC 29213 assessed as microbial growth inhibition in presence of Mg2+ by susceptibility testing method; type: functional
Staphylococcus aureus [13] = experiment: Antimicrobial activity against Staphylococcus aureus ATCC 29213 assessed as microbial growth inhibition in presence of Mn2+ by susceptibility testing method; type: functional
Staphylococcus aureus [14] = experiment: Antimicrobial activity against Staphylococcus aureus ATCC 29213 assessed as microbial growth inhibition in presence of Zn2+ by susceptibility testing method; type: functional
Staphylococcus aureus [15] = experiment: Antimicrobial activity against Staphylococcus aureus ATCC 29213 assessed as microbial growth inhibition in presence of Cu2+ by susceptibility testing method; type: functional
Staphylococcus aureus [16] = experiment: Antimicrobial activity against Staphylococcus aureus ATCC 29213 assessed as microbial growth inhibition in presence of Fe3+ by susceptibility testing method; type: functional
Staphylococcus aureus [17] = experiment: Antimicrobial activity against Staphylococcus aureus ATCC 29213 assessed as microbial growth inhibition in presence of Ca2+ by susceptibility testing method; type: functional
Escherichia coli [18] = experiment: Antimicrobial activity against Escherichia coli BL21 (DE3) assessed as microbial growth inhibition in presence of Ca2+ by susceptibility testing method; type: functional, organism-based
Escherichia coli [19] = experiment: Antimicrobial activity against Escherichia coli expressing delta-tolC/KanR assessed as microbial growth inhibition in presence of Ca2+ by susceptibility testing method; type: functional, organism-based
Pseudomonas aeruginosa = experiment: Antimicrobial activity against Pseudomonas aeruginosa assessed as microbial growth inhibition in presence of Ca2+ by susceptibility testing method; type: functional, organism-based
Micrococcus luteus = experiment: Antimicrobial activity against Micrococcus luteus assessed as microbial growth inhibition in presence of Ca2+ by susceptibility testing method; type: functional, organism-based
Macrococcus caseolyticus = experiment: Antimicrobial activity against Macrococcus caseolyticus assessed as microbial growth inhibition in presence of Ca2+ by susceptibility testing method; type: functional, organism-based; details: Macrococcoides caseolyticum
Bacillus cereus = experiment: Antimicrobial activity against Bacillus cereus X1 assessed as microbial growth inhibition in presence of Ca2+ by susceptibility testing method; type: functional, organism-based
Staphylococcus aureus [20] = experiment: Antimicrobial activity against Staphylococcus aureus ATCC 29213 assessed as microbial growth inhibition in presence of (B4O7)2- by susceptibility testing method; type: functional
Staphylococcus aureus [21] = experiment: Antimicrobial activity against Staphylococcus aureus ATCC 29213 assessed as microbial growth inhibition in presence of (CH3CO2)- by susceptibility testing method; type: functional
Staphylococcus aureus [22] = experiment: Antimicrobial activity against Staphylococcus aureus ATCC 29213 assessed as microbial growth inhibition in presence of (HCO3)- by susceptibility testing method; type: functional
Staphylococcus aureus [23] = experiment: Antimicrobial activity against Staphylococcus aureus ATCC 29213 assessed as microbial growth inhibition in presence of (H2PO4)-/(HPO4)2- by susceptibility testing method; type: functional
Staphylococcus aureus [24] = experiment: Antimicrobial activity against Staphylococcus aureus ATCC 29213 assessed as microbial growth inhibition by susceptibility testing method; type: functional
Staphylococcus aureus [25] = experiment: Antimicrobial activity against Staphylococcus aureus ATCC 29213 assessed as microbial growth inhibition in presence of <=200 mM of (H2PO4)-/(HPO4)2- by susceptibility testing method; type: functional, organism-based
Lipid bilayer [26] = experiment: Induction of pore formation in zwitter-ionic DOPC lipid bilayer membrane model at 1 to 100 ug/ml; details: dose 1-100 µg/ml
Lipid bilayer [27] = experiment: Induction of pore formation in anionic DOPC/DOPG lipid bilayer membrane model at 1 to 100 ug/ml; details: dose 1-100 µg/ml
Lipid bilayer [28] = experiment: Induction of pore formation in anionic DPhPG lipid bilayer membrane model at 1 to 100 ug/ml; details: dose 1-100 µg/ml
Lipid bilayer [29] = experiment: Induction of pore formation in anionic TOCL lipid bilayer membrane model at 1 to 100 ug/ml; details: dose 1-100 µg/ml
Lipid bilayer [30] = experiment: Induction of pore formation in anionic TMoCL lipid bilayer membrane model at 1 to 100 ug/ml; details: dose 1-100 µg/ml
Lipid bilayer [31] = experiment: Induction of pore formation in cationic DOPC/DOTAP lipid bilayer membrane model at 1 to 100 ug/ml; details: dose 1-100 µg/ml
Lipid bilayer [32] = experiment: Induction of pore formation in anionic DOPC/DOPG lipid bilayer membrane model at 1 to 100 ug/ml in presence of CaCl2; details: dose 1-100 µg/ml
Lipid bilayer [33] = experiment: Induction of pore formation in cationic DOPC/DOTAP lipid bilayer membrane model at 1 to 100 ug/ml in presence of CaCl2; details: dose 1-100 µg/ml
Lipid bilayer [34] = experiment: Induction of pore formation in anionic DPhPG lipid bilayer membrane model at 1 to 100 ug/ml in presence of CaCl2; details: dose 1-100 µg/ml
Lipid bilayer [35] = experiment: Induction of pore formation in anionic TOCL lipid bilayer membrane model at 1 to 100 ug/ml in presence of CaCl2; details: dose 1-100 µg/ml
Lipid bilayer [36] = experiment: Induction of pore formation in anionic TMoCL lipid bilayer membrane model assessed as pore-forming threshold concentration
Lipid bilayer [37] = experiment: Induction of pore formation in anionic TMoCL lipid bilayer membrane model assessed as pore-forming threshold concentration in presence of CaCl2

With `CN[C@H](CC(C)C)C(=O)N[C@H]1C(=O)N[C@@H](CC(N)=O)C(=O)N[C@H]2C(=O)N[C@H]3C(=O)N[C@H](C(=O)N[C@H](C(=O)O)c4cc(O)cc(O)c4-c4cc3ccc4O)[C@H](O)c3ccc(c(Cl)c3)Oc3cc2cc(c3O[C@@H]2O[C@H](CO)[C@@H](O)[C@H](O)[C@H]2O[C@H]2C[C@](C)(N)[C@H](O)[C@H](C)O2)Oc2ccc(cc2Cl)[C@H]1O` the “growth inhibition (GI)” value (Staphylococcus aureus [1]) was “Active”.

With `CC(C)/C=C/C=C\C(=O)NCCC(=O)N[C@@H](CCCN)C(=O)NC(CC(O)c1ccccc1)C(=O)NC(C(=O)N[C@@H](Cc1ccc(OC2OC[C@H](O)[C@H](O)[C@H]2O)cc1)C(=O)NC1C(=O)N[C@H](CC(C)C)C(=O)N[C@@H](CC(=O)O)C(=O)NCC(=O)N[C@@H](CO)C(=O)NCC(=O)N[C@@H](CC(=O)c2ccc(Cl)cc2N)C(=O)N[C@@H](C)C(=O)N2CCC[C@H]2C(=O)NC1C)C(O)CC(=O)O` (some centres not stated) the MIC (Staphylococcus aureus [2]) was 1 µg/mL (≈ 0.541 µM), the MIC (Staphylococcus aureus [3]) was 4 µg/mL (≈ 2.17 µM) and the MIC (Staphylococcus aureus [4]) was 4 µg/mL (≈ 2.17 µM). It also gave an MIC (Staphylococcus aureus [5]) of 2 µg/mL (≈ 1.08 µM), an MIC (Staphylococcus aureus [6]) of 1 µg/mL (≈ 0.541 µM) and an MIC (Staphylococcus aureus [7]) of 1 µg/mL (≈ 0.541 µM). For the same molecule, the MIC (Staphylococcus aureus [8]) was 0.5 µg/mL (≈ 0.271 µM), the MIC (Staphylococcus aureus [9]) was 0.25 µg/mL (≈ 0.135 µM) and the MIC (Staphylococcus aureus [10]) was 1 µg/mL. It also gave an MIC (Staphylococcus aureus [11]) of 1 µg/mL, an MIC (Staphylococcus aureus [12]) of 1 µg/mL and an MIC (Staphylococcus aureus [13]) of 1 µg/mL. The MIC (Staphylococcus aureus [14]) was 1 µg/mL, the MIC (Staphylococcus aureus [15]) was 1 µg/mL and the MIC (Staphylococcus aureus [16]) was 1 µg/mL. The MIC (Staphylococcus aureus [17]) was 0.125 µg/mL, the inhibition (Escherichia coli [18]) was “inactive” and the inhibition (Escherichia coli [19]) was “inactive”. For the same molecule, the inhibition (Pseudomonas aeruginosa) was “inactive”, the inhibition (Micrococcus luteus) was “Active” and the inhibition (Macrococcus caseolyticus) was “Active”. For the same molecule, the inhibition (Bacillus cereus) was “Active”, the MIC (Staphylococcus aureus [20]) was 1 µg/mL and the MIC (Staphylococcus aureus [21]) was 2 µg/mL. The MIC (Staphylococcus aureus [22]) was 0.5 µg/mL, the MIC (Staphylococcus aureus [23]) was 4 µg/mL and the MIC (Staphylococcus aureus [24]) was 1 µg/mL (≈ 0.541 µM). The Activity (Staphylococcus aureus [25]) was “inactive”, the Activity (Lipid bilayer [26]) was “inactive” and the Activity (Lipid bilayer [27]) was “Active”. The Activity (Lipid bilayer [28]) was “Active”, the Activity (Lipid bilayer [29]) was “Active” and the Activity (Lipid bilayer [30]) was “Active”. The Activity (Lipid bilayer [31]) was “Active”, the Activity (Lipid bilayer [32]) was “Active” and the Activity (Lipid bilayer [33]) was “Active”. The Activity (Lipid bilayer [34]) was “Active”, the Activity (Lipid bilayer [35]) was “Active” and the Activity (Lipid bilayer [36]) was 10 µg/mL. It also gave an Activity (Lipid bilayer [37]) of 7 µg/mL.

For `CNCCC(=O)NCCC[C@H](NC(=O)CCNC(=O)/C=C\C=C\C(C)C)C(=O)NC(CC(O)c1ccccc1)C(=O)NC(C(=O)N[C@@H](Cc1ccc(O)cc1)C(=O)NC1C(=O)N[C@H](CC(C)C)C(=O)N[C@@H](CC(=O)O)C(=O)NCC(=O)N[C@@H](CO)C(=O)NCC(=O)N[C@@H](CC(=O)c2ccc(Cl)cc2N)C(=O)N[C@@H](C)C(=O)N2CCC[C@H]2C(=O)NC1C)C(O)CC(=O)O` (some centres not stated), the MIC (Staphylococcus aureus [2]) was 16 µg/mL (≈ 8.89 µM).

For `CC(C)/C=C/C=C\C(=O)NCCC(=O)N[C@@H](CCCNC(=O)CCN)C(=O)NC(CC(O)c1ccccc1)C(=O)NC(C(=O)N[C@@H](Cc1ccc(OC2OC[C@H](O)[C@H](O)[C@H]2O)cc1)C(=O)NC1C(=O)N[C@H](CC(C)C)C(=O)N[C@@H](CC(=O)O)C(=O)NCC(=O)N[C@@H](CO)C(=O)NCC(=O)N[C@@H](CC(=O)c2ccc(Cl)cc2N)C(=O)N[C@@H](C)C(=O)N2CCC[C@H]2C(=O)NC1C)C(O)CC(=O)O` (some centres not stated), the MIC (Staphylococcus aureus [2]) was 2 µg/mL (≈ 1.04 µM), the “growth inhibition (GI)” value (Staphylococcus aureus [10]) was “Active” and the “growth inhibition (GI)” value (Staphylococcus aureus [11]) was “Active”. For the same molecule, the “growth inhibition (GI)” value (Staphylococcus aureus [12]) was “Active”, the “growth inhibition (GI)” value (Staphylococcus aureus [13]) was “Active” and the “growth inhibition (GI)” value (Staphylococcus aureus [14]) was “Active”. For the same molecule, the “growth inhibition (GI)” value (Staphylococcus aureus [15]) was “Active”, the “growth inhibition (GI)” value (Staphylococcus aureus [16]) was “Active” and the “growth inhibition (GI)” value (Staphylococcus aureus [17]) was “Active”. The “growth inhibition (GI)” value (Staphylococcus aureus [1]) was “Active”, the inhibition (Escherichia coli [18]) was “inactive” and the inhibition (Escherichia coli [19]) was “inactive”. For the same molecule, the inhibition (Pseudomonas aeruginosa) was “inactive”, the inhibition (Micrococcus luteus) was “Active” and the inhibition (Macrococcus caseolyticus) was “Active”. For the same molecule, the inhibition (Bacillus cereus) was “Active”, the Activity (Staphylococcus aureus [25]) was “inactive” and the Activity (Lipid bilayer [26]) was “inactive”. The Activity (Lipid bilayer [27]) was “Active”, the Activity (Lipid bilayer [28]) was “Active” and the Activity (Lipid bilayer [29]) was “Active”. The Activity (Lipid bilayer [30]) was “Active”, the Activity (Lipid bilayer [31]) was “Active” and the Activity (Lipid bilayer [32]) was “Active”. The Activity (Lipid bilayer [33]) was “Active”, the Activity (Lipid bilayer [34]) was “Active” and the Activity (Lipid bilayer [35]) was “Active”. It also gave an Activity (Lipid bilayer [36]) of 10 µg/mL and an Activity (Lipid bilayer [37]) of 7 µg/mL.

With `NC[C@H]1O[C@H](O[C@H]2[C@H](O)[C@@H](O[C@H]3O[C@H](CO)[C@@H](O)[C@H](N)[C@H]3O)[C@H](N)C[C@@H]2N)[C@H](N)C[C@@H]1O` the “growth inhibition (GI)” value (Staphylococcus aureus [1]) was “Active”.
